Experimental data reported in patent US8952024B2, “Herbicidal pyrimidone derivatives” (E I du Pont de Nemours and Company, priority 2009, dated 2015).

Key:
Type in all cases: in vivo
[1] = system: rice (Oryza sativa); assay: Test B flooded paddy test; settings: for Plant response rating, Flood, Rice: 250 g ai/ha, flooded paddy test, visual rating on 0 to 100 scale (0 no effect, 100 complete control) after 13 to 15 days; for Plant response rating, Rice: Flood (flooded paddy test), 13 to 15 days
Outline: (§1)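 2-leaf seedlings; pots flooded 3 cm over soil at treatment; cpd dosed into floodwater, depth kept constant. Greenhouse 13–15 d. Visual rating vs untreated controls, 0 = no effect, 100 = complete control.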

[2] = system: ducksalad (Heteranthera limosa); assay: Test B flooded paddy test; settings: for Plant response rating, Flood, Ducksalad: 250 g ai/ha, flooded paddy test, visual rating on 0 to 100 scale (0 no effect, 100 complete control) after 13 to 15 days; for Plant response rating, Ducksalad: Flood (flooded paddy test), 13 to 15 days
Outline: as §1

[3] = system: corn (Zea mays); assay: Test A pre-/postemergence plant response
Outline: (§2)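 Injury was scored visually after roughly ten days against untreated controls, 0 = no effect, 100 = complete control. Test chemicals in a surfactant-containing non-phytotoxic solvent were sprayed either onto soil preemergence or onto one- to two-leaf, 2–10 cm plants postemergence.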

[4] = system: morningglory (Ipomoea spp.); assay: Test A pre-/postemergence plant response
Outline: as §2

[5] = system: pigweed (Amaranthus retroflexus); assay: Test A pre-/postemergence plant response
Outline: as §2

[6] = system: large crabgrass (Digitaria sanguinalis); assay: Test A pre-/postemergence plant response
Outline: as §2

[7] = system: barnyardgrass (Echinochloa crus-galli); assay: Test A pre-/postemergence plant response
Outline: as §2

[8] = system: wheat (Triticum aestivum); assay: Test A pre-/postemergence plant response
Outline: as §2

[9] = system: velvetleaf (Abutilon theophrasti); assay: Test A pre-/postemergence plant response
Outline: as §2

[10] = system: giant foxtail (Setaria faberii); assay: Test A pre-/postemergence plant response
Outline: as §2

[11] = system: windgrass (Apera spica-venti); assay: Test B postemergence plant response; settings: for Windgrass plant response rating (0 to 100 scale): 62 g ai/ha, 0 is no effect, 13 to 15 days
Outline: (§3)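 Visual ratings from 0 (no effect) to 100 (complete control), made against controls 13–15 days after treatment, kept in a greenhouse. Compounds were applied postemergence to potted plants at the 1- to 4-leaf stage (2–18 cm).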

[12] = system: chickweed (Stellaria media); assay: Test B postemergence plant response; settings: for Chickweed plant response rating (0 to 100 scale): 62 g ai/ha, 0 is no effect, 13 to 15 days
Outline: as §3

[13] = system: canarygrass (Phalaris minor); assay: Test B postemergence plant response; settings: for Canarygrass plant response rating (0 to 100 scale): 62 g ai/ha, 0 is no effect, 13 to 15 days
Outline: as §3

[14] = 62 g ai/ha, scale of 0 to 100 where 0 is no effect and 100 is complete control
[15] = Postemergence, 125 g ai/ha, 0 to 100 scale where 0 is no effect and 100 is complete control
[16] = Postemergence, 500 g ai/ha, 0 to 100 scale, 0 = no effect, 100 = complete control, approx. ten days
[17] = Preemergence, 125 g ai/ha, 0 to 100 scale, 0 = no effect, 100 = complete control
[18] = Preemergence, 500 g ai/ha, visual injury, 0 to 100 scale (0 no effect, 100 complete control), approx. ten days
[19] = 31 g ai/ha, postemergence, scale 0 to 100, 0 is no effect, 100 is complete control
[20] = postemergence, 100 is complete control
[21] = Postemergence, 125 g ai/ha, visual rating after 13 to 15 days, scale 0 (no effect) to 100 (complete control)
[22] = Postemergence, 250 g ai/ha, scale 0 to 100 (0 no effect, 100 complete control)
[23] = 125 g ai/ha, scale 0 to 100, 0 is no effect, 100 is complete control
[24] = Flood, 31 g ai/ha, scale 0 to 100 (0 no effect, 100 complete control)

In the case of `CCCc1ncc(C(=O)C2=C(O)CCCC2=O)c(=O)n1CC1CCCO1` (stereo not drawn) [Compound 74], the “Plant response rating, Flood, Rice” value [1] is reported as 0, the “Plant response rating, Rice” value [1, 14] is reported as 0 and the “Plant response rating, Flood, Ducksalad” value [2] is reported as 0. For the same compound, the “Plant response rating, Ducksalad” value [2, 14] was 0, the “Plant response rating, Corn” value [3, 15] was 0 and the “Plant response rating, Corn” value [3, 16] was 20. The “Plant response rating, Corn” value [3, 17] was 0, the “Plant response rating, Corn” value [3, 18] was 0 and the “Plant response rating, Morningglory” value [4, 15] was 90. The “Plant response rating, Morningglory” value [4, 16] was 100, the “Plant response rating, Morningglory” value [4, 17] was 40 and the “Plant response rating, Morningglory” value [4, 18] was 60. The “Plant response rating, Pigweed” value [5, 15] was 100, the “Plant response rating, Pigweed” value [5, 16] was 100 and the “Plant response rating, Pigweed” value [5, 17] was 90. For the same compound, the “Plant response rating, Pigweed” value [5, 18] was 100, the “Plant response rating, Crabgrass, Large” value [6, 15] was 90 and the “Plant response rating, Crabgrass, Large” value [6, 16] was 90. The “Plant response rating, Crabgrass, Large” value [6, 17] was 70, the “Plant response rating, Crabgrass, Large” value [6, 18] was 90 and the “Plant response rating, Barnyardgrass” value [7, 15] was 80. For the same compound, the “Plant response rating, Barnyardgrass” value [7, 16] was 90, the “Plant response rating, Barnyardgrass” value [7, 17] was 30 and the “Plant response rating, Barnyardgrass” value [7, 18] was 60. For the same compound, the “Plant response rating, Wheat” value [8, 15] was 0, the “Plant response rating, Wheat” value [8, 16] was 20 and the “Plant response rating, Wheat” value [8, 17] was 0. For the same compound, the “Plant response rating, Wheat” value [8, 18] was 0, the “Plant response rating, Velvetleaf” value [9, 15] was 90 and the “Plant response rating, Velvetleaf” value [9, 16] was 100. The “Plant response rating, Velvetleaf” value [9, 17] was 70, the “Plant response rating, Velvetleaf” value [9, 18] was 90 and the “Plant response rating, Foxtail, Giant” value [10, 15] was 40. For the same compound, the “Plant response rating, Foxtail, Giant” value [10, 16] was 80, the “Plant response rating, Foxtail, Giant” value [10, 17] was 0 and the “Plant response rating, Foxtail, Giant” value [10, 18] was 40. The “Plant response rating, Windgrass” value [11, 19] was 5, the “Windgrass plant response rating (0 to 100 scale)” value [11, 20] was 60 and the “Plant response rating, Windgrass” value [11, 21] was 80. The “Plant response rating, Windgrass” value [11, 22] was 95, the “Plant response rating, Chickweed” value [12, 19] was 75 and the “Chickweed plant response rating (0 to 100 scale)” value [12, 20] was 85. The “Plant response rating, Chickweed” value [12, 21] was 95, the “Plant response rating, Chickweed” value [12, 22] was 100 and the “Plant response rating, Canarygrass” value [13, 19] was 0. For the same compound, the “Canarygrass plant response rating (0 to 100 scale)” value [13, 20] was 0, the “Plant response rating, Canarygrass” value [13, 21] was 0 and the “Plant response rating, Canarygrass” value [13, 22] was 0.

With `Cc1ccccc1-c1ncc(C(=O)C2=C(O)CCCC2=O)c(=O)n1-c1ccccc1` [Compound 82] the “Plant response rating, Flood, Rice” value [1] was 20, the “Plant response rating, Rice” value [1, 14] was 0 and the “Plant response rating, Rice” value [1, 23] was 15. For the same compound, the “Rice plant response rating” value [1, 24] was 0, the “Plant response rating, Flood, Ducksalad” value [2] was 20 and the “Plant response rating, Ducksalad” value [2, 14] was 0. The “Plant response rating, Ducksalad” value [2, 23] was 0, the “Ducksalad plant response rating” value [2, 24] was 0 and the “Plant response rating, Corn” value [3, 15] was 0. For the same compound, the “Plant response rating, Corn” value [3, 16] was 20, the “Plant response rating, Corn” value [3, 17] was 0 and the “Plant response rating, Corn” value [3, 18] was 0. For the same compound, the “Plant response rating, Morningglory” value [4, 15] was 90, the “Plant response rating, Morningglory” value [4, 16] was 100 and the “Plant response rating, Morningglory” value [4, 17] was 0. The “Plant response rating, Morningglory” value [4, 18] was 60, the “Plant response rating, Pigweed” value [5, 15] was 90 and the “Plant response rating, Pigweed” value [5, 16] was 100. For the same compound, the “Plant response rating, Pigweed” value [5, 17] was 90, the “Plant response rating, Pigweed” value [5, 18] was 100 and the “Plant response rating, Crabgrass, Large” value [6, 15] was 40. The “Plant response rating, Crabgrass, Large” value [6, 16] was 90, the “Plant response rating, Crabgrass, Large” value [6, 18] was 100 and the “Plant response rating, Barnyardgrass” value [7, 15] was 10. For the same compound, the “Plant response rating, Barnyardgrass” value [7, 16] was 70, the “Plant response rating, Barnyardgrass” value [7, 17] was 0 and the “Plant response rating, Barnyardgrass” value [7, 18] was 10. For the same compound, the “Plant response rating, Wheat” value [8, 15] was 0, the “Plant response rating, Wheat” value [8, 16] was 0 and the “Plant response rating, Wheat” value [8, 17] was 0. For the same compound, the “Plant response rating, Wheat” value [8, 18] was 0, the “Plant response rating, Velvetleaf” value [9, 15] was 100 and the “Plant response rating, Velvetleaf” value [9, 16] was 100. For the same compound, the “Plant response rating, Velvetleaf” value [9, 17] was 50, the “Plant response rating, Velvetleaf” value [9, 18] was 90 and the “Plant response rating, Foxtail, Giant” value [10, 15] was 10. The “Plant response rating, Foxtail, Giant” value [10, 16] was 80, the “Plant response rating, Foxtail, Giant” value [10, 17] was 10 and the “Plant response rating, Foxtail, Giant” value [10, 18] was 40. For the same compound, the “Plant response rating, Windgrass” value [11, 19] was 5, the “Windgrass plant response rating (0 to 100 scale)” value [11, 20] was 5 and the “Plant response rating, Windgrass” value [11, 21] was 20. For the same compound, the “Plant response rating, Windgrass” value [11, 22] was 50, the “Plant response rating, Chickweed” value [12, 19] was 90 and the “Chickweed plant response rating (0 to 100 scale)” value [12, 20] was 90. For the same compound, the “Plant response rating, Chickweed” value [12, 21] was 98, the “Plant response rating, Chickweed” value [12, 22] was 100 and the “Plant response rating, Canarygrass” value [13, 19] was 0. The “Canarygrass plant response rating (0 to 100 scale)” value [13, 20] was 0, the “Plant response rating, Canarygrass” value [13, 21] was 15 and the “Plant response rating, Canarygrass” value [13, 22] was 35.
